Measurements from article PMC8586700 (Frontiers in Pharmacology, 2021).
Where two headings read alike, the source gives them in different places.

How the values were obtained:
[1] = Pharmacokinetic experiment, single intragastric administration, plasma by HPLC-UV; type: in vivo, SD rats; conditions: for AUC / Cmax / half-life / Tmax / concentration at 40 min / concentration at 60 min / concentration at 90 min / concentration at 150 min / concentration at 210 min: SD (Sprague-Dawley); for AUC / Cmax / half-life / Tmax / concentration at 40 min / concentration at 60 min / concentration at 90 min / concentration at 150 min / concentration at 210 min / concentration at 20 min / concentration at 270 min / concentration at 330 min: rat, plasma, po; for AUC / Cmax / half-life / Tmax: 200 mg/kg; for AUC: read-out: AUC(0-tn) of DHC (converted); for Cmax: read-out: Cmax of DHC; for half-life: read-out: T1/2 of DHC; for Tmax: read-out: Tmax of DHC (converted); for concentration at 40 min / concentration at 60 min / concentration at 90 min / concentration at 150 min / concentration at 210 min / concentration at 20 min / concentration at 270 min / concentration at 330 min: read-out: Mean concentrations ±sd, DHC; for concentration at 20 min / concentration at 270 min / concentration at 330 min: SD
Method: An Agilent 1200 HPLC system was used. […] The flow rate was set at 1 ml min^−1 and detection wavelength was 420, 340 and 323 nm. Injection volume was 5 μL. The column temperature was set at 30°C.
(§1) Plasma or brain homogenate of SD rats was taken 50 μL, internal standard solution of 50 μL and protein precipitator of 150 μL were added. After eddy oscillation for 3 min, supernatant was separated by centrifugation.
Blood samples were collected from tail vein at 20 min, 40 min, 1, 1.5, 2.5, 3.5, 4.5, and 5.5 h after intragastric administration.
(§2) Plasma was collected by centrifugation of blood at 3000 RPM for 10min, and stored at -80 °C. Brain tissue of SD rat was dissected, weighed and added with normal saline at a volume of 2 ml g^−1. After homogenating brain tissue for 3 min by a homogenizer at 14,000 RPM, the supernatant was collected after centrifugation at 12,000 RPM for 10 min.

[2] = Stability experiment in plasma and brain homogenate samples; type: in vitro ADME, SD rats
Method: Three blank samples of plasma and brain homogenate of SD rats were added into the mixed standard solution. The stability experiment included placing at room temperature for 12 h, repeatedly freeze-thaw for three times and frozen for 15 days.

[3] = Repeated administration, drug concentrations of plasma and brain; type: in vivo, SD rats; conditions: for Mean concentrations±sd, DHC in plasma after multiple doses: loading dose then half doses for four consecutive days
Method: as §1
The concentration of drugs in plasma and brain homogenate after repeated administration was determined according to the same grouping and administration method. The loading dose of 200 mg kg^−1 was given for the first time and half doses for four consecutive days.
as §2

[4] = Group A: CUR 200 mg kg^−1 oral alone
[5] = Group B: CUR 200 mg kg^−1 and PIP 150 mg kg^−1 oral
[6] = Group C: CUR 200 mg kg^−1 and ILE 150 mg kg^−1 oral
[7] = Group A (CUR 200 mg kg^−1 oral alone)
[8] = Group B (CUR 200 mg kg^−1 and PIP 150 mg kg^−1 oral)
[9] = Group C (CUR 200 mg kg^−1 and ILE 150 mg kg^−1 oral)
[10] = combined CUR and ILE compared with CUR alone
[11] = combined CUR and ILE compared with combined administration with PIP
[12] = combined CUR and PIP compared with single CUR administration

## COc1cc(/C=C/C(=O)CC(=O)CCc2ccc(O)c(OC)c2)ccc1O [DHC, Dihydrocurcumin]
[1]; [4]
  CL of DHC: 233.2 ± 7.8 mL/min
  Vd of DHC: 9,087.6 ± 302.9 mL
  AUC: 7610 ng·h/mL
  Cmax: 6100 ± 3200 ng/mL
  half-life: 24.8 ± 9.3 min
  Tmax: 26 min
[1]; [5]
  CL of DHC: 70.0 ± 3.3 mL/min
  Vd of DHC: 2,802.6 ± 133.4 mL
  AUC: 7060 ng·h/mL
  Cmax: 7500 ± 1100 ng/mL
  half-life: 25.4 ± 6.3 min
  Tmax: 22 min
[1]; [6]
  CL of DHC: 52.7 ± 2.3 mL/min
  Vd of DHC: 3,751.4 ± 165.6 mL
  AUC: 16800 ng·h/mL
  Cmax: 9200 ± 2400 ng/mL
  half-life: 114 ± 31.2 min
  Tmax: 18 min
[1]; [7]
  concentration at 40 min: 3500 ± 900 ng/mL
  concentration at 60 min: 1800 ± 500 ng/mL
  concentration at 90 min: 1400 ± 500 ng/mL
  concentration at 150 min: 1200 ± 700 ng/mL
  concentration at 210 min: 1100 ± 300 ng/mL
  concentration at 20 min: 6100 ± 3200 ng/mL
  concentration at 270 min: 900 ± 400 ng/mL
  concentration at 330 min: 800 ± 400 ng/mL
[1]; [8]
  concentration at 40 min: 4000 ± 600 ng/mL
  concentration at 60 min: 2600 ± 500 ng/mL
  concentration at 90 min: 2000 ± 400 ng/mL
  concentration at 150 min: 1000 ± 300 ng/mL
  concentration at 210 min: 600 ± 200 ng/mL
  concentration at 20 min: 7500 ± 1100 ng/mL
  concentration at 270 min: 250 ± 30 ng/mL
  concentration at 330 min: 150 ± 30 ng/mL
[1]; [9]
  concentration at 40 min: 6300 ± 700 ng/mL
  concentration at 60 min: 4800 ± 700 ng/mL
  concentration at 90 min: 4000 ± 1200 ng/mL
  concentration at 150 min: 3800 ± 700 ng/mL
  concentration at 210 min: 2600 ± 100 ng/mL
  concentration at 20 min: 9200 ± 2400 ng/mL
  concentration at 270 min: 1400 ± 700 ng/mL
  concentration at 330 min: 600 ± 200 ng/mL
[1]; [10]
  AUC(0-tn) of DHC increased by: 1.2 times
  CL of DHC reduced by: 77.4%
  Cmax of DHC increased by: 50.8%
  T1/2 of DHC increased by: 3.6 times
  Tmax of DHC decreased by: 30.8%
  Vd of DHC reduced by: 58.6%
[1]; combined CUR and ILE compared with CUR and PIP combined
  Vd of DHC increased by: 34%
[1]; combined CUR and ILE compared with CUR combined with PIP
  CL of DHC reduced by: 24.6%
[1]; [11]
  AUC(0-tn) of DHC increased by: 1.4 times
  Cmax of DHC increased by: 22.7%
  T1/2 of DHC increased by: 3.5 times
  Tmax of DHC decreased by: 18.2%
[1]; [12]
  AUC(0-tn) of DHC decreased by: 7.2%
  CL of DHC decreased by: 70%
  Cmax of DHC increased by: 23%
  Tmax of DHC decreased by: 15.4%
  Vd of DHC decreased by: 69.2%
[2]; plasma
  Recoveries after repeated freezing-thawing for three times: over 100%
[2]; plasma samples
  Recoveries after being kept at room temperature for 12 h: less than 30%
[3]; Group I: CUR
  Mean concentrations±sd, DHC in plasma after multiple doses: 1400 ± 600 ng/mL
[3]; Group II: CUR and PIP
  Mean concentrations±sd, DHC in plasma after multiple doses: 4600 ± 1800 ng/mL
[3]; Group III: CUR and ILE
  Mean concentrations±sd, DHC in plasma after multiple doses: 8700 ± 2500 ng/mL
[3]; after repeated administration
  Detection in brain tissue: could not be detected
